Results from PubChem BioAssay AID2060497 (Molecular Pharmacology Branch, DTP, NCI, 2025).
Several values for one entry are separate records, joined by “and”; a condition that tells them apart may be missing. Equal values may be shown once.

Tested on: 317291-083-R-J1-PDC complex spheroids, viability
Test: Anticancer human tumor 317291-083-R-J1-PDC patient-derived soft tissue sarcoma cell line growth inhibition [GQUAD]
Settings: for viability, T/C: stronger effect = lower value
Outline: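 Tumor cells were grown as complex spheroids with HUVEC endothelial cells and mesenchymal stem cells as stroma. G-quadruplex stabilizers were combined with targeted agents over half-log dilutions from near the clinical Cmax, or from 10 microM.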

[1] = curve of first compound, second compound 0.0316 µM
[2] = curve of first compound, second compound 0.1 µM
[3] = curve of first compound, second compound 0.316 µM
[4] = curve of first compound, second compound 1 µM
[5] = curve of first compound, second compound 3.16 µM
[6] = curve of first compound, second compound 10 µM
[7] = second compound 0.0316 µM, first compound 0.0316 µM
[8] = second compound 0.0316 µM, first compound 0.1 µM
[9] = second compound 0.0316 µM, first compound 0.316 µM
[10] = second compound 0.0316 µM, first compound 1 µM
[11] = second compound 0.0316 µM, first compound 3.16 µM
[12] = second compound 0.0316 µM, first compound 10 µM
[13] = second compound 0.1 µM, first compound 0.0316 µM
[14] = second compound 0.1 µM, first compound 0.1 µM
[15] = second compound 0.1 µM, first compound 0.316 µM
[16] = second compound 0.1 µM, first compound 1 µM
[17] = second compound 0.1 µM, first compound 3.16 µM
[18] = second compound 0.1 µM, first compound 10 µM
[19] = second compound 0.316 µM, first compound 0.0316 µM
[20] = second compound 0.316 µM, first compound 0.1 µM
[21] = second compound 0.316 µM, first compound 0.316 µM
[22] = second compound 0.316 µM, first compound 1 µM
[23] = second compound 0.316 µM, first compound 3.16 µM
[24] = second compound 0.316 µM, first compound 10 µM
[25] = second compound 1 µM, first compound 0.0316 µM
[26] = second compound 1 µM, first compound 0.1 µM
[27] = second compound 1 µM, first compound 0.316 µM
[28] = second compound 1 µM, first compound 1 µM
[29] = second compound 1 µM, first compound 3.16 µM
[30] = second compound 1 µM, first compound 10 µM
[31] = second compound 3.16 µM, first compound 0.0316 µM
[32] = second compound 3.16 µM, first compound 0.1 µM
[33] = second compound 3.16 µM, first compound 0.316 µM
[34] = second compound 3.16 µM, first compound 1 µM
[35] = second compound 3.16 µM, first compound 3.16 µM
[36] = second compound 3.16 µM, first compound 10 µM
[37] = second compound 10 µM, first compound 0.0316 µM
[38] = second compound 10 µM, first compound 0.1 µM
[39] = second compound 10 µM, first compound 0.316 µM
[40] = second compound 10 µM, first compound 1 µM
[41] = second compound 10 µM, first compound 3.16 µM
[42] = second compound 10 µM, first compound 10 µM
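Further: spheroids exposed to compounds for one week before readout.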
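Wherever viability, T/C is given: percent viability relative to DMSO vehicle wells taken as 100%.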

## CC1COCCN1c1cc(C2(O)CC3CCC(C2)O3)c2cnn(-c3ccn[nH]3)c2n1 (configuration not stated) + Cc1[nH]c2ccc(F)cc2c1-c1nc2c3cccnc3c3ncccc3c2[nH]1
[1]
  IC50: 71.4 nM
[2]
  IC50: 54.7 nM
[3]
  IC50: 39.2 nM
[4]
  IC50: 51.7 nM
[5]
  IC50: 50.2 nM
[6]
  IC50: 33.7 nM
[7]
  viability, T/C: 84.1%
[8]
  viability, T/C: 34.8%
[9]
  viability, T/C: 16%
[10]
  viability, T/C: 22.8%
[11]
  viability, T/C: 13.2%
[12]
  viability, T/C: 3.15%
[13]
  viability, T/C: 68.5%
[14]
  viability, T/C: 29.5%
[15]
  viability, T/C: 13.9%
[16]
  viability, T/C: 12.8%
[17]
  viability, T/C: 10.4%
[18]
  viability, T/C: 3.93%
[19]
  viability, T/C: 55.7%
[20]
  viability, T/C: 27.9%
[21]
  viability, T/C: 14.8%
[22]
  viability, T/C: 20.1%
[23]
  viability, T/C: 12.1%
[24]
  viability, T/C: 3.04%
[25]
  viability, T/C: 66.4%
[26]
  viability, T/C: 26.4%
[27]
  viability, T/C: 18.6%
[28]
  viability, T/C: 10.8%
[29]
  viability, T/C: 11.3%
[30]
  viability, T/C: 2.71%
[31]
  viability, T/C: 69.7%
[32]
  viability, T/C: 20.4%
[33]
  viability, T/C: 10.7%
[34]
  viability, T/C: 14.3%
[35]
  viability, T/C: 7.98%
[36]
  viability, T/C: 2.88%
[37]
  viability, T/C: 52.3%
[38]
  viability, T/C: 18.9%
[39]
  viability, T/C: 14%
[40]
  viability, T/C: 13.8%
[41]
  viability, T/C: 10.7%
[42]
  viability, T/C: 3.52%

## Cc1[nH]c2ccccc2c1CCNCc1ccc(/C=C/C(=O)NO)cc1
Compound 0.000999 µM
  viability, T/C: 108% and 109% and 114%
Compound 0.00316 µM
  viability, T/C: 92% and 89.5% and 96.1%
Compound 0.00999 µM
  viability, T/C: 106% and 110% and 105%
Compound 0.0316 µM
  viability, T/C: 62.6% and 80.2% and 99%
Compound 0.0999 µM
  viability, T/C: 8.77% and 22.1% and 21.3%
Compound 0.316 µM
  viability, T/C: 0.25% and 0.09% and 0.84%
Curve of compound
  IC50: 41.4 nM and 57.9 nM and 65.3 nM

## CC(=O)O[C@H]1C(=O)[C@@]2(C)[C@H]([C@H](OC(=O)c3ccccc3)[C@]3(O)C[C@H](OC(=O)[C@H](O)[C@@H](NC(=O)c4ccccc4)c4ccccc4)C(C)=C1C3(C)C)[C@]1(OC(C)=O)CO[C@@H]1C[C@@H]2O
Compound 0.0316 µM
  viability, T/C: 57.3% and 36.6% and 33.9%
Compound 0.1 µM
  viability, T/C: 20.6% and 16.7% and 10.5%
Compound 0.316 µM
  viability, T/C: 13.1% and 15.6% and 6.57%
Compound 1 µM
  viability, T/C: 12.8% and 15.3% and 9.02%
Compound 3.16 µM
  viability, T/C: 12.2% and 9.53% and 10.6%
Compound 10 µM
  viability, T/C: 12.3% and 12.5% and 12.1%
Curve of compound
  IC50: 39.7 nM and < 31.6 nM

## Cc1[nH]c2ccccc2c1CCNCc1ccc(/C=C/C(=O)NO)cc1 + Cc1[nH]c2ccc(F)cc2c1-c1nc2c3cccnc3c3ncccc3c2[nH]1
[1]
  IC50: 43.4 nM
[2]
  IC50: 48.1 nM
[3]
  IC50: 12.1 nM
[4]
  IC50: 4.07 nM
[5]
  IC50: 1.08 nM
[6]
  IC50: < 0.999 nM
Second compound 0.0316 µM, first compound 0.000999 µM
  viability, T/C: 114%
Second compound 0.0316 µM, first compound 0.00316 µM
  viability, T/C: 96.7%
Second compound 0.0316 µM, first compound 0.00999 µM
  viability, T/C: 96.9%
[7]
  viability, T/C: 67%
Second compound 0.0316 µM, first compound 0.0999 µM
  viability, T/C: 6.7%
[9]
  viability, T/C: 0.62%
Second compound 0.1 µM, first compound 0.000999 µM
  viability, T/C: 93.4%
Second compound 0.1 µM, first compound 0.00316 µM
  viability, T/C: 93.3%
Second compound 0.1 µM, first compound 0.00999 µM
  viability, T/C: 85.2%
[13]
  viability, T/C: 74%
Second compound 0.1 µM, first compound 0.0999 µM
  viability, T/C: 8.53%
[15]
  viability, T/C: 0.12%
Second compound 0.316 µM, first compound 0.000999 µM
  viability, T/C: 73.3%
Second compound 0.316 µM, first compound 0.00316 µM
  viability, T/C: 68.5%
Second compound 0.316 µM, first compound 0.00999 µM
  viability, T/C: 53.9%
[19]
  viability, T/C: 28.9%
Second compound 0.316 µM, first compound 0.0999 µM
  viability, T/C: 6.05%
[21]
  viability, T/C: 0.16%
Second compound 1 µM, first compound 0.000999 µM
  viability, T/C: 59.9%
Second compound 1 µM, first compound 0.00316 µM
  viability, T/C: 51%
Second compound 1 µM, first compound 0.00999 µM
  viability, T/C: 39.7%
[25]
  viability, T/C: 15.5%
Second compound 1 µM, first compound 0.0999 µM
  viability, T/C: 3.36%
[27]
  viability, T/C: 0.14%
Second compound 3.16 µM, first compound 0.000999 µM
  viability, T/C: 51.5%
Second compound 3.16 µM, first compound 0.00316 µM
  viability, T/C: 39%
Second compound 3.16 µM, first compound 0.00999 µM
  viability, T/C: 19.9%
[31]
  viability, T/C: 27.9%
Second compound 3.16 µM, first compound 0.0999 µM
  viability, T/C: 1.59%
[33]
  viability, T/C: 0.17%
Second compound 10 µM, first compound 0.000999 µM
  viability, T/C: 48.7%
Second compound 10 µM, first compound 0.00316 µM
  viability, T/C: 49%
Second compound 10 µM, first compound 0.00999 µM
  viability, T/C: 51.4%
[37]
  viability, T/C: 13.5%
Second compound 10 µM, first compound 0.0999 µM
  viability, T/C: 3.62%
[39]
  viability, T/C: 0.24%

## COc1cccc2c1C(=O)c1c(O)c3c(c(O)c1C2=O)CC(O)(C(=O)CO)CC3OC1CC(N)C(O)C(C)O1 (configuration not stated) + Cc1[nH]c2ccc(F)cc2c1-c1nc2c3cccnc3c3ncccc3c2[nH]1
[1]
  IC50: 81 nM
[2]
  IC50: 72.1 nM
[3]
  IC50: 77.4 nM
[4]
  IC50: 135 nM
[5]
  IC50: 65.5 nM
[6]
  IC50: 65.2 nM
[7]
  viability, T/C: 112%
[8]
  viability, T/C: 31.8%
[9]
  viability, T/C: 21.9%
[10]
  viability, T/C: 9.79%
[11]
  viability, T/C: 0.88%
[12]
  viability, T/C: 4.17%
[13]
  viability, T/C: 80.3%
[14]
  viability, T/C: 35.4%
[15]
  viability, T/C: 21.6%
[16]
  viability, T/C: 8.91%
[17]
  viability, T/C: 1.29%
[18]
  viability, T/C: 2.78%
[19]
  viability, T/C: 88.3%
[20]
  viability, T/C: 36.5%
[21]
  viability, T/C: 19.7%
[22]
  viability, T/C: 13.5%
[23]
  viability, T/C: 1.55%
[24]
  viability, T/C: 3.24%
[25]
  viability, T/C: 89.8%
[26]
  viability, T/C: 60.3%
[27]
  viability, T/C: 21.3%
[28]
  viability, T/C: 11.1%
[29]
  viability, T/C: 1.17%
[30]
  viability, T/C: 1.78%
[31]
  viability, T/C: 77%
[32]
  viability, T/C: 31.2%
[33]
  viability, T/C: 18%
[34]
  viability, T/C: 16.5%
[35]
  viability, T/C: 1.5%
[36]
  viability, T/C: 1.98%
[37]
  viability, T/C: 68.3%
[38]
  viability, T/C: 39.3%
[39]
  viability, T/C: 16.9%
[40]
  viability, T/C: 8.13%
[41]
  viability, T/C: 1.49%
[42]
  viability, T/C: 2.3%

## CCCS(=O)(=O)Nc1ccc(F)c(C(=O)c2c[nH]c3ncc(-c4ccc(Cl)cc4)cc23)c1F
Compound 0.0316 µM
  viability, T/C: 104% and 114% and 118%
Compound 0.1 µM
  viability, T/C: 97.3% and 110% and 95%
Compound 0.316 µM
  viability, T/C: 102% and 113% and 121%
Compound 1 µM
  viability, T/C: 86.6% and 83.1% and 87%
Compound 3.16 µM
  viability, T/C: 46.4% and 66% and 62.4%
Compound 10 µM
  viability, T/C: 12.2% and 13.6% and 14.5%
Curve of compound
  IC50: 2840 nM and 4300 nM and 4140 nM
